For `CCCCNc1cccnc1S(=O)(=O)NC(=O)Nc1nc(OC)cc(OC)n1`, the melting point was 118 to 119 °C. For `COC(=O)C(=O)c1ccc(OCCOc2ccc(-c3ccccc3)cc2)cc1`, the melting point was 143 to 145 °C. For `COCCOCOc1ccccc1N1C(C(C)(C)C)ONC1(Br)C(C)(C)C` (stereo not given), the melting point was 89 to 91 °C. Work on `CC(C)CNC(=O)c1c[nH]c2ncc(-c3nn(C)c4cc(F)ccc34)nc12` yielded a melting point of 285 to 287 °C. Work on `Cc1cc(F)ccc1-c1cc(N2CCSCC2)ncc1C(N)=O` yielded a melting point of 198 to 202 °C. Compound `CC(=O)NC1CCCCC1CCC(=O)O` (stereo not given) has a melting point of 116 to 121 °C. `COC(=O)c1ccc(-c2ccc(NC(=O)c3ccc(OC)c(CCCN(C)C)c3)cc2)cc1` showed a melting point of 188 to 192 °C. `COC1C=C(Br)C(=O)CO1` (stereo not given) gave a melting point of 74 to 75 °C. `CS(=O)(=O)c1ccc(-c2cnn(-c3ccc([N+](=O)[O-])cc3)c(=O)c2-c2ccc(F)cc2)cc1` gave a melting point of 110 to 116 °C. In the case of `CCOC(=O)/C=C(C)/C(F)=C/C=C(C)/C=C/c1c(Cl)cc(OC)c(C)c1Cl`, the melting point was 127 to 132 °C. In the case of `COc1cc(CN2CCN(C(=O)C3=Cc4ccc(OC(=O)c5ccccc5)cc4CC3)CC2)cc(OC)c1OC`, the melting point was 117 to 119 °C. `COC(=O)c1ccc(Cn2nc(O)c3[nH]c4cc(Cl)ccc4c(=O)c3c2=O)cc1` gave a melting point of over 290 °C. With `O=C1c2ccccc2C(=O)N1CC(=O)N(Cc1ccccc1)c1ccccc1` the melting point was 150 °C. Work on `CCNC1CCN(c2c(F)c(N)c3c(=O)c(C(=O)O)cn(C4CC4)c3c2OC)CC1C` (stereo not given) yielded a melting point of 230 to 232 °C. In the case of `Brc1ccc(N2CCN(Cc3ccccc3)CC2)nc1`, the melting point was 100 °C. `CC(O)(CC(=O)O)c1ccc(-c2ccc(F)cc2)cc1` (stereo not given) showed a melting point of 81 to 82 °C. In the case of `CC(C)C1(c2ccccc2)OC(C(=O)OCc2cccnc2)=CC1=O` (stereo not given), the melting point was 109 to 110 °C. Work on `CN(C)S(=O)(=O)c1ccc2c(c1)C=C(C(=O)O)C(C(F)(F)F)O2` (stereo not given) yielded a melting point of 201 to 202 °C. Work on `COC(OC)c1cccc(-c2ccc(C(=O)O)cc2)c1` yielded a melting point of 130 to 131 °C. For `CNC(=C[N+](=O)[O-])NCCCCCCCCCCCCNC(C[N+](=O)[O-])NCCSCc1ccc(CN(C)C)o1` (stereo not given), the melting point was 78 to 80 °C. `CCNC(=O)c1ccc(C=C2CC3CCC(C2)N3CCC(C(=O)N(C)C)(c2ccccc2)c2ccccc2)cc1` gave a melting point of 137 to 139 °C. With `Cc1c(F)c(F)c(COC(=O)C(c2cnc(C(C)(C)C)nc2)C(C)(C)C)c(F)c1F` (racemic) the melting point was 91 °C. `CCC1(C)OC(=O)C(c2ccccc2)C(=O)O1` (stereo not given) gave a melting point of 135 to 136 °C. Work on `CN(C)C(=O)N1CCC2(CC1)CN=C(c1cc3cccc(N(C)S(=O)(=O)c4cccs4)c3[nH]1)S2` yielded a melting point of 245 °C. `CCOC1CN(Cc2cc(OC)c(OC)c(OC)c2)Cc2cc(OC)c(OCc3ccccc3)cc21` (stereo not given) showed a melting point of 132 to 133 °C. Compound `CC1=C(C(=O)OC(C)C)C(c2cccc3ccc(-c4ccccc4)nc23)C([N+](=O)[O-])=C(C)N1` (stereo not given) has a melting point of 205 °C. `CCCN1C(=O)N(c2ccc([N+](=O)[O-])c(C(F)(F)F)c2)C(=O)C1(C)C` showed a melting point of 102 °C. `COc1ccc(C)cc1NC(=O)Nc1ccc(N2CCN(C(=O)Nc3ccc(CO)cc3C)CC2)cc1` showed a melting point of 138 to 141 °C. In the case of `O=c1cc(-c2ccncc2)oc2ccccc12`, the melting point was 144 to 145 °C. With `O=c1c(C2=Nc3ccccc3S(=O)(=O)N2)c(O)c2ccccc2n1CCCCO` the melting point was 238 to 240 °C. For `Cc1ccc(S(=O)(=O)N2CCN(S(=O)(=O)c3ccc(C)cc3)CC3CCC(CN(S(=O)(=O)c4ccc(C)cc4)CC2)O3)cc1`, the melting point was 175 to 178 °C. `COc1cc2nc(N3CCN(C(=O)C=Cc4ccc(OC)c(OC)c4OC)CC3)nc(N)c2cc1OC` gave a melting point of 263 to 264 °C. In the case of `CCc1c(C)[nH]c2cc(OCCN3CCOCC3)c(Cl)cc2c1=O`, the melting point was 270 to 271 °C. For `OC(Cn1ccnc1)c1ccc2c(c1)Cc1ccccc1-2` (stereo not given), the melting point was 196 to 199 °C. Compound `COC(=O)c1ccc2c(c1)Sc1ccc(F)cc1C(O)=C2` has a melting point of 85 to 88 °C. `CCOC(=O)C1N=C(c2ccccc2)c2cc([N+](=O)[O-])ccc2NC1=O` (stereo not given) showed a melting point of 271 °C. With `Clc1ccc(-c2nc(Cc3nnn[nH]3)c(-c3ccccc3)s2)cc1` the melting point was 213 to 214 °C. `CC1(C)C(=O)N(c2ccc(C#N)c(C(F)(F)F)c2)C(=O)N1Cc1ccccc1Br` showed a melting point of 56 to 58 °C. In the case of `CC1=C(Cc2ccc(NC(=O)OC(C)(C)C)cc2)C(=O)C2C=CC=CC2C1=O` (stereo not given), the melting point was 148 to 149 °C. `OC1CSC(Oc2ccncc2)C(O)C1O` (stereo not given) showed a melting point of 165 to 168 °C. `NCC(=O)c1cccc2c(S(=O)(=O)n3c(CCC(=O)O)cc4cc(Cl)ccc43)cccc12` showed a melting point of 130 to 135 °C. `O=C1CCC(=O)N1Cc1nc2sc3c(c2c(-c2ccc(Cl)cc2)c1Cl)CCNC3` gave a melting point of 230 to 231 °C. Work on `NC(=O)n1nc(-c2ccc(F)cc2)cc1N` yielded a melting point of 140 °C. `Cc1ccc(/C=C/C(=O)Nc2cccc(NC(=N)c3ccccc3)c2)cc1` gave a melting point of 147 to 149 °C. Compound `O=C(OCCO)c1nc(Cl)c(Cl)[nH]1` has a melting point of 170 °C. Compound `OCC1CCCc2scnc21` (stereo not given) has a melting point of 74 to 75 °C. In the case of `CN1Cc2c(cc(CN3CCOCC3)n2C)C(c2ccccc2)C1` (stereo not given), the melting point was 96 to 97 °C. With `N#CNc1ncc(-c2ccncc2)cn1` the melting point was over 300 °C. `CC(NC(=O)C(O)c1cc(F)cc(F)c1)C(=O)NC1C(=O)N(C)c2ccccc2N(c2ccccc2)C1=O` (stereo not given) gave a melting point of 212 to 213 °C. Compound `CC(=C(Cl)Cl)c1cc(N)c(S(N)(=O)=O)cc1S(N)(=O)=O` has a melting point of 199 to 202 °C. In the case of `CCc1cc2c(s1)-n1c(C)nnc1C(CCCC(=O)O)N=C2c1ccc(Cl)cc1` (stereo not given), the melting point was 185 to 187 °C. Compound `CS(=O)(=O)c1ccc(N2CC(O)(C(F)(F)F)N=C2c2ccncc2)cc1` (stereo not given) has a melting point of 219 °C. `CN1CCN(c2ccc(Nc3cc(-c4cccc(-n5ncc6cc(C(C)(C)C)cc(F)c6c5=O)c4CO)nn(C)c3=O)nc2)CC1` gave a melting point of 260 to 264 °C. For `Cc1ccc2nc(OCC(=O)NCCCN(C)Cc3ccc(Cl)c(Cl)c3)oc2c1`, the melting point was 62 to 66 °C. Compound `CCC(O)c1cc(C(=O)c2ccccc2)no1` (stereo not given) has a melting point of 70 to 71 °C. For `NCCNc1cccc2cn[nH]c12`, the melting point was 166 to 168 °C. `OC1Cc2ccc3ccccc3c21` (stereo not given) gave a melting point of 96 to 100 °C. `S=C(c1ccc(Br)cc1)N1CCOCC1` showed a melting point of 135 to 137 °C. Work on `CC(C#N)(CC#N)c1cccc([N+](=O)[O-])c1` (stereo not given) yielded a melting point of 142 to 143 °C. In the case of `OC1CCc2c(-c3cccs3)cccc21` (stereo not given), the melting point was 101 to 104 °C. Compound `Cc1cc(-c2nnc3c4cccnc4c(OCc4ncnn4C)nn23)no1` has a melting point of 255 to 257 °C. `O=C(c1ccccc1)c1c(Cl)cc(CBr)cc1Cl` gave a melting point of 111 to 113 °C. In the case of `CN(CCNC(N)=N[N+](=O)[O-])c1ccc(Cl)nc1`, the melting point was 119 to 122 °C. `O=C1Cc2ccccc2C(c2ccccc2)CN1` (stereo not given) gave a melting point of 154 to 155 °C. With `CC1(c2ccc(OCc3ccccc3)c(C3CO3)c2)OCCO1` (stereo not given) the melting point was 121 to 123 °C. Compound `CCc1cc(Br)cc2nc(C(=O)OC)c(C(=O)OC)c(O)c12` has a melting point of 115 to 117 °C. With `O=C(NCCBr)C1=C(C(=O)Nc2cc(OC3CCCC3)c(Cl)cc2F)CCCC1` the melting point was 140 to 142 °C. Work on `CN1CCC(=C2c3cc(Cl)ccc3CC(=O)c3sccc32)CC1` yielded a melting point of 168 to 169 °C. `CC(C)(C)OC(=O)N[C@@H](Cc1ccc(-c2ccccc2)cc1)C(=O)OCc1ccccc1` showed a melting point of 98.3 to 100 °C. `COC(=O)c1ccc(Nc2ccc(C#N)cc2N)cc1` gave a melting point of 164 to 165 °C.

— a melting point compilation (Tetko et al.; mined from patent text by program, amines drawn as free bases though some values may be those of a salt)
